Test system: living body
Assay: Toxicity test
Conditions: in vivo

## CN(C)c1ccc(O)c2c1C[C@H]1C[C@H]3[C@H](N(C)C)C(O)=C(C(N)=O)C(=O)[C@@]3(O)C(O)=C1C2=O [minocycline]
  side effects on the living body: no particular side effects
